Assay results from patent US12139481B2, “Compositions comprising macrocycle derivatives incorporating bridged macrocycles and methods of producing and using same” (Southwestern Oklahoma State University, priority 2015, dated 2024).
Several values for one entry are separate records, joined by “and”; a condition that tells them apart may be missing. Equal entries are not always repeated. Where two headings read alike, the source gives them in different places.

Test system: Cryptococcus neoformans ATCC 90113
Test: Antimicrobial microdilution assay against Cryptococcus neoformans (modified CLSI/NCCLS, optical density)
Assay type: cell-based
Conditions: for X more potent than Amphotericin B: C. neoformans, ratio of molar IC50 to Amphotericin B
Experimental: Summary: Various macrocyclic derivatives constructed in accordance with the presently disclosed and/or claimed inventive concept(s) were screened in vitro against Cryptococcus neoformans ATCC 90113 using a microdilution assay. The minimum fungicidal concentration (MFC), the lowest test concentration that kills the organism, was determined in broth media.
Antimicrobial assay: Cryptococcus neoformans ATCC 90113 were obtained from the American Type Culture Collection (Manassas, VA.). The susceptibility testing was performed using a modified version of the CLSI (formerly NCCLS) methods (see below), and optical density was used to monitor growth. Samples were serially diluted in 20% DMSO/saline and transferred in duplicate to 96-well flat bottom microplates. Microbial inocula were prepared by correcting the OD630 of cell/spore suspensions in incubation broth RPMI at pH 6.0 to afford final desired target inocula. Amphotericin B (“AMB;” ICN Biomedicals, OH) was used as drug control. The organism concentration was read at 630 nm using the Biotek Powerwave XS plate reader (Bio-Tek instruments, VT) prior to and after incubation. Minimum fungicidal concentrations were determined by removing 5 μL from each clear well, transferring to agar, and incubating until growth was seen. The MFC/MBC is defined as the lowest test concentration that kids the organism (allows no growth on agar).
References for NCCLS methods referenced above: 1 NCCLS. Reference method for broth dilution antifungal susceptibility testing of yeasts, Vol. 22. Approved standard, 2nd ed. Wayne: National Committee for Clinical Laboratory Standards; 2002: 1-51. 2 NCCLS. Reference method for broth dilution antifungal susceptibility testing of conidium forming filamentous fungi, Vol. 18. Proposed standard M38-P. Wayne: National Committee for Clinical Laboratory Standards; 1998: 1-39. 3 NCCLS. Methods for dilution antimicrobial susceptibility tests for bacteria that grow aerobically, Vol. 20. NCCLS Document M7-A5. Wayne: National Committee for Clinical Laboratory Standards; 2000: 1-58.
The term “IC50” as used herein will be understood to refer to a test concentration in mol/L that affords 50% inhibition of the microbe relative to negative and positive controls. […] The abbreviation “MFC” as used herein will be understood to refer to a minimum fungicidal concentration, or the lowest test concentration in mol/L that kills the organism. All IC50s are calculated using the XLfit® fit curve fitting software (ID Business Solutions Ltd, Guildford, Surrey, UK).
General Experimental Procedures. All organisms were obtained from the American Type Culture Collection (Manassas, VA) and include the fungi Candida albicans ATCC 90028, C. glabrata ATCC 90030, C. krusei ATCC 6258, and Cryptococcus neoformans ATCC 90113, and the bacteria Staphylococcus aureus ATCC 29213 and methicillin-resistant S. aureus ATCC 33591 (MRS). All organisms were tested using modified versions of the CLSI (formerly NCCLS) methods. For all organisms, optical density was used to monitor growth (NCCLS, Reference Method for Broth Dilution Antifungal Susceptibility Testing of Yeasts; Approved Standard M27-A2. National Committee on Clinical Laboratory Standards, 2002 22 (15); and NCCLS, Methods for Dilution Antimicrobial Susceptibility Tests for Bacteria that Grow Aerobically; Approved Standard, Seventh Edition M7-A7. National Committee on Clinical Laboratory Standards, 2006. 26(2)).
Samples (dissolved in DMSO) were serially-diluted in 20% DMSO/saline and transferred (10 μL) in duplicate to 96 well flat bottom microplates.

[1] = in vitro, C. neoformans ATCC 90113
[2] = in vitro, C. neoformans ATCC 90113, read-out: C. neoformans IC50 (mol/L)

Compound | X more potent than Amphotericin B | C. neoformans IC50 [1] [µg/mL] | IC50 [2] [µM] | IC50 (read-out: IC50 against C. neoformans) [µM]
c1ccc2[nH]c(CN3CCNCCN4CCN(CC4)CC3)nc2c1 [SJA219, SB-BI-cyclen] | 0.01 | 5.780 | 17.6 | –
CC(=O)[O-].CC(=O)[O-].CN1CCCN2CCN(CCCN(Cc3ccc(CN4CCCN5CCN(C)CCCN(CC5)CC4)cc3)CC2)CC1.F[P-](F)(F)(F)(F)F.F[P-](F)(F)(F)(F)F.[Co+2].[Co+2] [KS40, [Co2(p-CB-cyclams)(OAc)2](PF6)2] | 13 and 13.21 | 0.020 | ≤ 0.018 | < 0.018
CC(=O)[O-].CC(=O)[O-].CN1CCN2CCN(CC1)CCN(Cc1nc3ccccc3[nH]1)CC2.[Zn+2] [SJA225, [Zn(CB-BI-cyclen)(OAc)2]] | 0.01 | 5.690 | – | –
[Co(Me1Py1-CB-Cyclam)Cl]PF6 [DGJ012] | 0.03 | 4.730 | 8.29 | –
CC(=O)[O-].CC(=O)[O-].F[P-](F)(F)(F)(F)F.F[P-](F)(F)(F)(F)F.O.O.O.O.O.[Cu+2].[Cu+2].c1cc(CN2CCCN3CCNCCCN(CC3)CC2)ccc1CN1CCCN2CCNCCCN(CC2)CC1 [TJH416B, [Cu2(H2-p-CB-cyclams)(OAc)2][PF6]2•5H2O] | 0.09 | 3.030 | 2.57 | –
[Cl-].[Cl-].[Zn+2].c1ccc2[nH]c(CN3CCNCCN4CCN(CC4)CC3)nc2c1 [SJA222, [Zn(SB-BI-cyclen)(Cl)2]] | 0.03 | 2.610 | – | –
CN1CCN2CCN(C)CCN(CC1)CC2.F[P-](F)(F)(F)(F)F.[Cl-].[Cl-].[Co+3] [DT06#2, [Co(Bcyclen)Cl2]PF6] | 0.04 | 3.390 | 6.78 | –
[Fe(Py-SB-Cyclam)Cl]PF6 [ADS18C] | 0.01 | 18.540 | 33.5 | –
[Cu2(p-SB-cyclam-cyclen)(OAc)1.2][PF6]2.8 [CMB018] | 0.09 | 3.020 | 2.67 | –
C1CN2CCNCCN(CCN1)CC2.CC(=O)[O-].F[P-](F)(F)(F)(F)F.[Co+2] [ANC27A, [Co(H2Bcyclen)(OAc)]PF6] | 0.02 | 5.030 | 10.9 | –
[Cu(Bn2PBCyclen)(C2H3O2)0.4][PF6]1.6 [AW040] | 0.02 | 7.050 | 9.91 | –
[Cu2(p-CB-Homocyclens)(OAc)2][PF6]2 [ANC011] | 0.06 | 4.190 | 3.85 | –
CC(=O)[O-].CN1CCN2CCN(CC1)CCN(Cc1ccccc1)CC2.F[P-](F)(F)(F)(F)F.F[P-](F)(F)(F)(F)F.[Co+3] [TRH15, [Co(Bn1Me1Bcyclen)(OAc)][PF6]2] | 0.21 | ≤ 0.800 | 1.13 | –
CN1CCN2CCN(CC1)CCN(Cc1nc3ccccc3[nH]1)CC2 [SJA220, CB-BI-cyclen] | 0.02 | 5.160 | 15.1 | –
CN1CCCN2CCN(CCCN(Cc3ccc(CN4CCCN5CCN(C)CCCN(CC5)CC4)cc3)CC2)CC1 [KS23, p-CB-cyclams] | 0.02 | 8.200 | 14.1 | –
CC(=O)[O-].CC(=O)[O-].F[P-](F)(F)(F)(F)F.F[P-](F)(F)(F)(F)F.O.O.[Zn+2].[Zn+2].c1cc(CN2CCNCCN3CCN(CC3)CC2)cc(CN2CCNCCN3CCN(CC3)CC2)c1 [OB37, [Zn2(m-SB-Cyclens)(OAc)2][PF6]2•2H2O] | 0.32 | ≤ 0.800 | – | –
CC(=O)[O-].CC(=O)[O-].F[P-](F)(F)(F)(F)F.F[P-](F)(F)(F)(F)F.O.[Co+2].[Co+2].c1cc(CN2CCNCCCN3CCN(CC3)CC2)cc(CN2CCNCCCN3CCN(CC3)CC2)c1 [OB55, [Co2(m-SB-Homocyclens)(OAc)2][PF6]2•H2O] | 0.05 | 5.120 | 4.78 | –
C1CNCCN2CCCNCCN(C1)CC2.CC(=O)[O-].F[P-](F)(F)(F)(F)F.[Co+2] [ANC25, [Co(H2Bcyclam)(OAc)]PF6] | 0.03 | 4.360 | 8.91 | –
CN1CCCN2CCN(C)CCN(CC1)CC2.F[P-](F)(F)(F)(F)F.[Cl-].[Cl-].[Co+3] [DGJ031, [Co(B13N4)Cl2]PF6] | 0.02 | 4.980 | 9.67 | –
CC(=O)[O-].CC(=O)[O-].O=[N+]([O-])c1ccc(Cn2c(CN3CCNCCN4CCN(CC4)CC3)nc3ccccc32)cc1.[Ni+2] [SJA232, [Ni(SB-BINO2-cyclen)(OAc)2]] | 0.02 | 5.070 | 10.9 | –
[Zn(H2PBCyclam)(OAc)]PF6•2.5NH4PF6 [SLK41] | 0.04 | 5.190 | 5.66 | –
[Cu(dcp1-SB-cyclen)(OAc)]PF6 [OB105] | 0.08 | 2.190 | 3.1 | –
F[P-](F)(F)(F)(F)F.F[P-](F)(F)(F)(F)F.F[P-](F)(F)(F)(F)F.F[P-](F)(F)(F)(F)F.O.O.[Cu+2].[Cu+2].c1cc(CN2CCNCCCN3CCN(CC3)CC2)ccc1CN1CCNCCCN2CCN(CC2)CC1 [OB49, [Cu2(p-SB-Homocyclens)][PF6]4•2H2O] | 0.38 | ≤ 0.800 | 0.63 | –
C1CNCCN2CCCNCCN(C1)CCC2.CC(=O)[O-].F[P-](F)(F)(F)(F)F.F[P-](F)(F)(F)(F)F.F[P-](F)(F)(F)(F)F.[Cu+2].[NH4+].[NH4+] [SLK40B, [Cu(H2PBCyclam)(OAc)]PF6•2NH4PF6] | 0.03 | 6.930 | 8.31 | –
CC(=O)[O-].CN1CCN2CCN(CC1)CCN(Cc1cc(Cl)nc(Cl)c1)CC2.F[P-](F)(F)(F)(F)F.[Co+2] [OB118, [Co(Me1dcp1-CB-cyclen)(OAc)]PF6] | 0.03 | 6.050 | 9.52 | –
[Ni2(p-SB-cyclam-cyclen)(OAc)][PF6]3•H2O [CMB017A] | 0.06 | 4.940 | 4.27 | –
O=[N+]([O-])c1ccc(Cn2c(CN3CCNCCN4CCN(CC4)CC3)nc3ccccc32)cc1 [SJA229, SB-BINO2-cyclen] | 0.06 | 1.890 | 4.08 | –
CC(=O)[O-].CC(=O)[O-].CN1CCN2CCN(CC1)CCN(Cc1ccc(CN3CCN4CCN(C)CCN(CC4)CC3)cc1)CC2.F[P-](F)(F)(F)(F)F.F[P-](F)(F)(F)(F)F.[Cu+2].[Cu+2] [JAV06, [Cu2(p-CB-Cyclens)(OAc)2][PF6]2] | 0.02 | 10.900 | 10.3 | –
CN1CCN2CCN(CC1)CCN(Cc1ccccn1)CC2.[Cl-].[Cl-].[Mn+2] [KRW37, [Mn(pic1Me1-CB-Cyclen)Cl]Cl] | 0.03 | 3.076 | 7.17 | –
CC(=O)[O-].CC(=O)[O-].CC(=O)[O-].F[P-](F)(F)(F)(F)F.F[P-](F)(F)(F)(F)F.F[P-](F)(F)(F)(F)F.[Co+3].[Co+3].c1cc(CN2CCCN3CCNCCCN(CC3)CC2)ccc1CN1CCCN2CCNCCCN(CC2)CC1 [TJH414B, [Co2(H2-p-CB-cyclams)(OAc)3][PF6]3] | 1.31 | 0.234 | 0.182 | –
